The values that follow come from patent publication US20260232753A1, “COMPOSITION FOR TREATING MACULAR DEGENERATION COMPRISING NOVEL PEPTIDE” (EYEBIOKOREA, INC., priority 2021, published 2026).

The subject of experiment [1] is choroidal neovascularization (CNV). Briefly: Inhibition of choroidal neovascularization: fluorescence value (CTF) at the CNV site by FFA, laser-induced CNV model, intravitreal injection. Type of experiment: in vivo, C57BL/6 mice. The following applies: laser-induced CNV; 1 μL intravitreal, peptide 10 mg/mL or aflibercept 20 mg/mL; ten days after administration; lower CTF = less CNV. The source says:
(§1) The CNV animal model used in the present invention is a mouse model in which lesions are induced by irradiating a laser to the choroid of C57BL/6 mice using a laser slit system. The laser-induced CNV model, first described in 1979, uses photocoagulation to disturb Bruch's membrane to induce the growth of choroidal neovascularization into the retina area, and it is similar in development to neovascular disease in the human retina, that is, wet macular degeneration (wet AMD), in that neovascularity arises from the choroid. In addition, the laser-induced CNV model was successful in predicting the clinical efficacy of anti-vascular endothelial growth factor (VEGF) treatment for neovascular AMD, and is an animal model used in the development stage of existing therapeutic agents (Gong Y, Li J, Sun Y, Fu Z, Liu C H, Evans L, et al. (2015) Optimization of an Image-Guided Laser-Induced Choroidal Neovascularization Model in Mice. PLOS ONE 10 (7)).
(§2) In order to evaluate the efficacy of the peptide of the present invention to inhibit the choroidal neovascularization (CNV), an experiment was performed as follows.
(§3) The eyes of 7-8 week old C57BL/6 mice were instilled with a mydriatic agent to dilate the pupils, and the mice were anesthetized by intraperitoneal injection of ketamine (50 mg/kg) and rompun (23.32 mg/kg). A slit-lamp laser injection system was used to irradiate the laser to the choroid of each eye of the mouse four times in the 12 o'clock, 3 o'clock, 6 o'clock, and 9 o'clock directions. At this time, the laser irradiation conditions were 532 nm, 80 msec, and 240 mW. Immediately after laser irradiation, 1 μL of each peptide at a concentration of 10 mg/mL or aflibercept at a concentration of 20 mg/mL, which was dissolved in PBS, was injected into the vitreous body using a syringe. Ten days after drug administration, the mice were anesthetized, and 2% fluorescein was administered to the abdominal cavity to stain blood vessels. The retina was photographed 2 to 3 minutes after fluorescein administration. The size and fluorescence value of CNV lesions induced by laser were measured using the ImageJ program, and in order to reduce the differences between subjects, the CTF (corrected total fluorescence) was calculated by removing the background, and the values of each group were compared. The results of all tests are expressed as mean±standard deviation, and significance was verified using one-way ANOVA and Kruskal-wallis test.

The test system is the same in experiment [2]. Briefly: Inhibition of choroidal neovascularization: optical coherence tomography, size of CNV lesion, intravitreal injection. Type of experiment: in vivo, C57BL/6 mice. The following applies: laser-induced CNV; 1 μL intravitreal, peptide 10 mg/mL or aflibercept 20 mg/mL; ten days after administration; OCT.
Excerpt: as §1, §2
as §3, with “and” for “and 2% fluorescein was administered to”, “the” for “the abdominal cavity to stain blood vessels. The retina was photographed 2 to 3 minutes after fluorescein administration. The size and fluorescence value of”, “calculated and expressed as μm^2” for “measured”, “program” for “program, and in order to reduce the differences between subjects, the CTF (corrected total fluorescence) was calculated”, “transmitting an OCT beam for” for “removing the background, and the values of”, “burn.” for “group were compared.”

The test system is the same in experiment [3]. Briefly: Inhibition of choroidal neovascularization: electroretinography, b-wave amplitude as indicator of retinal function. Type of experiment: in vivo, C57BL/6 mice. The following applies: laser-induced CNV; 1 μL intravitreal, peptide 10 mg/mL or aflibercept 20 mg/mL; single white light 0.9 cd·sec/m^2.
Excerpt: as §1, §2
The eyes of 7-8 week old C57BL/6 mice were instilled with a mydriatic agent to dilate the pupils, and the mice were anesthetized by intraperitoneal injection of ketamine (50 mg/kg) and rompun (23.32 mg/kg). A slit-lamp laser injection system was used to irradiate the laser to the choroid of each eye of the mouse four times in the 12 o'clock, 3 o'clock, 6 o'clock, and 9 o'clock directions. At this time, the laser irradiation conditions were 532 nm, 80 msec, and 240 mW. Immediately after laser irradiation, 1 μL of each peptide at a concentration of 10 mg/mL or aflibercept at a concentration of 20 mg/mL, which was dissolved in PBS, was injected into the vitreous body using a syringe. For electroretinogram analysis, dark adaptation was performed for more than 12 hours. The mice were subjected to mydriasis in a dark room and anesthetized, and then electroretinography was performed by contacting the ground electrode to the tail, the reference electrode to the head, and the corneal electrode to the cornea. The response values were obtained by stimulating the retina with a single white light of 0.9 cd·sec/m^2 flash intensity, and the amplitude, which is determined from the trough of the a-wave to the peak of the b-wave, was measured and evaluated as an indicator of retinal function. The results of all tests are expressed as mean #standard deviation, and significance was verified using one-way ANOVA and Kruskal-wallis test.

The test system of experiment [4] is neovascularity. Briefly: Eye drop efficacy to inhibit neovascularity in Vldlr knockout mice: lesion area by retinal fluorescence imaging. Format: in vivo. The source says:
A symptom of neovascular macular degeneration is retinal angiomatous proliferation (RAP), which occurs in approximately 12 to 15% of patients who are newly diagnosed with neovascular macular degeneration. Meanwhile, Vldlr is known to be one of the functional candidate genes for human macular degeneration, and mice in which Vldlr is knocked out (−/−) show retinal hemangioma proliferation along with subretinal neovascularization. Therefore, in order to evaluate the neovascularity inhibitory efficacy of the eye drop comprising the peptide of Example 43 (002-175), which was confirmed to be an excellent peptide through the above test examples, in Vldlr knockout (−/−) mice, an animal model of neovascular macular degeneration disease, an experiment was performed as follows.
From 6 weeks of age (P42) to 14 weeks of age (P98), Vldlr^−/− mice were instilled with the eye drop comprising the peptide of Example 43 (002-175) twice a day, and as a positive control group, aflibercept at a concentration of 20 mg/mL was intraocularly injected once, 1 μL each, into the vitreous body of 6 week old mice. The eyes of the mice were instilled with a mydriatic agent to dilate the pupils, and then the mice were anesthetized by intraperitoneal injection of ketamine (50 mg/kg) and rompun (23.32 mg/kg), and 2% fluorescein was injected to the abdominal cavity to stain blood vessels. Images were acquired through retinal fluorescence imaging, and the lesion area was calculated using the ImageJ program, and the results of the experiment are shown in FIGS. 10 and 11.

As for aflibercept [reference compound], in experiment [1], the “CTF (corrected total fluorescence) value” is on record as “+ (+: 300,000 to 800,000)”. Besides, the Size of lesion in experiment [2] is 5,437 μm^2. Also, in experiment [3], the b-wave amplitude came out at 398 μV. Moreover, the “Size of the lesion (area of new blood vessels), course during administration (in words)” value in experiment [4] (P42 to P98, for aflibercept from the 2nd week) is on record as “gradually increased again”. For the same substance, the “Size of the lesion (area of new blood vessels), 1 week after administration (in words)” value in experiment [4] (P49) is on record as “reduced rapidly”. The “Size of the lesion (area of new blood vessels), after 8 weeks (in words)” value in experiment [4] (P98) is recorded as “reached a size similar to that of the group administered with vehicle”.
